These results are taken from patent US9290440B2, “Bicyclic compound” (TOA EIYO LTD., priority 2012, dated 2016).

This assay addresses T1, human sGC α subunit and β subunit (Homo sapiens, UniProt Q02153).
T1 construct: expressed in transfected cells
T1 sequence (Q02153 1-619): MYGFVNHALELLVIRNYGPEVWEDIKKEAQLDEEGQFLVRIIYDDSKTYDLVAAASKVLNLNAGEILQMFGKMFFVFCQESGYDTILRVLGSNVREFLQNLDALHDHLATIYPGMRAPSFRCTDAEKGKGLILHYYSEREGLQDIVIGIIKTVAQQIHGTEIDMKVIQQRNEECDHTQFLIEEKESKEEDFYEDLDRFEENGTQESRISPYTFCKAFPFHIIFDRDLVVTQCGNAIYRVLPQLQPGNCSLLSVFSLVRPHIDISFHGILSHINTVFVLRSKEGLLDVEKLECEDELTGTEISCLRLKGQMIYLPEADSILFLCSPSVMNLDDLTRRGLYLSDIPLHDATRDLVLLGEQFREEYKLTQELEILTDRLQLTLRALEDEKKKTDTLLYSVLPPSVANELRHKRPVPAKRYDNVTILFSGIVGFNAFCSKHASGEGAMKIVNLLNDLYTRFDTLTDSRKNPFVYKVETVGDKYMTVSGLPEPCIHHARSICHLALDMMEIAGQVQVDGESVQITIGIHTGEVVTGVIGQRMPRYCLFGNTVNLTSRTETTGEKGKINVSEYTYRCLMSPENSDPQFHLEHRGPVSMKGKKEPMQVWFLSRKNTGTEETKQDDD
T1 sequence (Q02108 1-690 partner): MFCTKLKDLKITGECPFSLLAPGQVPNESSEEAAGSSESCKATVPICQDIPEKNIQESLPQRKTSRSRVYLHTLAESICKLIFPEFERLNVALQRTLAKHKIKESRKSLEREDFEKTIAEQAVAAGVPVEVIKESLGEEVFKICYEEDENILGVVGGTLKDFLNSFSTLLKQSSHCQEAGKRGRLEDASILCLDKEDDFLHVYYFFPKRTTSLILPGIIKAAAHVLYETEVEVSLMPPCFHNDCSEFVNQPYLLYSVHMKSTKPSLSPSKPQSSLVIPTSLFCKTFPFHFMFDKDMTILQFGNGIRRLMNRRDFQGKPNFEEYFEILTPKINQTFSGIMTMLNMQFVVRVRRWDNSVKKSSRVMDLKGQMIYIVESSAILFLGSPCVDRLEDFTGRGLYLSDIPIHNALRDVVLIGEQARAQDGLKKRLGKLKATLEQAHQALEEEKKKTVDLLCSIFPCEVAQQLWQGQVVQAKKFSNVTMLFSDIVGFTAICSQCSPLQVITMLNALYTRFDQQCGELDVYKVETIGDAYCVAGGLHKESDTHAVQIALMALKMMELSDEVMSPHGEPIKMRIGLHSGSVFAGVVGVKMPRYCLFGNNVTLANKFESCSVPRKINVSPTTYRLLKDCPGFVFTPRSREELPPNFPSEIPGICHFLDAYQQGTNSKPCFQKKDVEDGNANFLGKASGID
Briefly: Heme-independent property of sGC activating function (EC50 ratio, CHO-K1 cells expressing human sGC and mouse CNGA2). The settings on record: EC50 in the absence of ODQ divided by EC50 in the presence of ODQ, sGC activation. In kind it is cell-based. As for the experimental part:
For the assay, Chinese hamster ovary cells (CHO-K1 cells) in which human sGC α subunit and β subunit and mouse cyclic nucleotide gated channel (CNGA2) are stably expressed were used.
CHO-K1 cells in which human sGC and mouse CNGA2 are stably expressed were cultured at 37° C. in F-12 medium containing 10% (v/v) fetal bovine serum (FBS), penicillin (100 U/mL), streptomycin (100 μg/mL), G418 (250 μg/mL), and zeocin (250 μg/mL). The cells were suspended in the culture medium and seeded onto a 96-well plate, and then cultured at 37° C. for 24 hours. After washing with assay buffer 1 (140 mmol/L sodium chloride, 5 mmol/L potassium chloride, 0.5 mmol/L magnesium chloride, 0.01 mmol/L calcium chloride, 10 mmol/L glucose, 0.4 mmol/L magnesium sulfate, 10 mmol/L 4-(2-hydroxyethyl)piperazin-1-ylethane sulfonic acid, and 125 μmol/L sulfinpyrazone, pH 7.4), an indicator solution in which FURA2-AM as a fluorescent Ca^2+ indicator is dissolved at concentration of 5 μmol/L in assay buffer 1 was added followed by culture for 60 minutes at 37° C. The indicator solution was removed. After washing with assay buffer 1, the test compound solution was added and incubated for 10 minutes at room temperature. The plate was placed in a fluorometer (Flex Station II, Molecular Devices, LLC), and then the intracellular calcium concentration was measured as fluorescence intensity ratio which is obtained from each excitation wavelength (excitation wavelength of 340 nm and 380 nm and detection wavelength of 510 nm).
The test compound solution was prepared by dissolving each of the test compounds in DMSO to a concentration of 10 mmol/L, and then adding the assay buffer 2 (140 mmol/L sodium chloride, 5 mmol/L potassium chloride, 0.5 mmol/L magnesium chloride, 1 mmol/L calcium chloride, 10 mmol/L glucose, 0.4 mmol/L magnesium sulfate, 10 mmol/L 4-(2-hydroxyethyl)piperazin-1-ylethane sulfonic acid, 125 μmol/L sulfinpyrazone, 100 μmol/L isobutylmethylxanthine, 10 μmol/L 1H-[1,2,4]-oxadiazole[4,3-a]quinoxalin-1-one (hereinbelow, ODQ), pH 7.4) for dilution to have test concentration of 10 μmol/L. For the evaluation of a case in which ODQ is not contained, the same evaluation was performed except that ODQ is excluded from assay buffer 2. As a control solution, a DMSO solution was used instead of the test compound solution.
The activity of the test compound corresponds to the increase ratio (%) of the sGC activity at the time of adding the test compound solution with respect to the sGC activity at the time of adding the control solution, and it was calculated by dividing the fluorescence intensity ratio at the time of adding the test compound by the fluorescence intensity ratio of the control solution and subtracting the sGC activity (100%) at the time of adding the control solution.
For the representative compounds, activity was measured in the same manner as Test Example 1 at each test concentration of 0.0001, 0.001, 0.003, 0.01, 0.03, 0.1, 1, and 10 μmol/L.
The degree of heme-independent property of each test compound with regard to sGC activating function was obtained by dividing, for EC50 measured from the concentration-activation curve which has been established from the above, EC50 in the absence of ODQ by EC50 in the presence of ODQ. Specifically, the smaller the EC50 ratio is, the less the change in sGC activating function is, the change in the function being caused by the presence or absence of ODQ, and thus it is found to be more heme-independent.
EC50 value was obtained by measuring the activity of each compound to be tested at concentrations of 0.0001, 0.001, 0.003, 0.01, 0.03, 0.1, 1, and 10 μmol/L and performing the calculation using four-parameter logistics model using Assay Explorer (Accelrys).
As to `O=C(O)CCCCN(CCc1ccccc1OCc1ccc(CCc2ccccc2)cc1)Cc1ccc(C(=O)O)cc1` [Cinaciguat, reference compound], the “EC50 Ratio (ODQ−/ODQ+)” value stood at 3.08. For `O=C(O)CCCCN(CCc1ccccc1OCc1ccc(SCc2ccccc2)cc1)C1CCCc2cc(C(=O)O)ccc21` (stereo not drawn) [Example 15, 5-{N-[2-[2-(4-Benzylsulfanylbenzyloxyl)phenyl]ethyl]-N-(4-carboxybutyl)amino}-5,6,7,8-tetrahydronaphthalene-2-carboxylic acid], the “EC50 Ratio (ODQ−/ODQ+)” value was found to be 1.40. Consider `O=C(O)CCCCN(CCc1ccccc1OCc1cccc2c1CCCC2)C1CCCc2cc(C(=O)O)ccc21` (stereo not drawn) [Example 29, 5-{N-(4-Carboxybutyl)-N-[2-[2-(5,6,7,8-tetrahydronaphthalene-1-ylmethoxy)phenyl]ethyl]amino}-5,6,7,8-tetrahydronaphthalene-2-carboxylic acid], for which the “EC50 Ratio (ODQ−/ODQ+)” value is 1.71.
